Measurements from patent US12384808B2, “Modulators of TNF-α activity” (Forward Therapeutics, Inc., priority 2022, dated 2025).

What follows are compounds tested against TNFα (Homo sapiens, UniProt P01375) (assay: TNFα Induced HEK Blue Cellular Assay). Conditions: HEK Blue TNFα reporter cells, TNFα 100 pg/ml, 24 hrs at 37° C., secreted alkaline phosphatase (QUANTI-Blue) read at 620 nm; read-out: IC50 value.
Type: cell-based
Experimental: TNFα Induced HEK Blue Cellular Assay
Test articles were diluted in DMSO and serially diluted into 384 well assay plate (Corning 3765), at final concentrations ranging from […] to 0.5 nM. HEK Blue™ TNFα reporter cells were added at a final density of 10,000 cell per well in assay media [DMEM (Gibco, cat #21063-029), 10% fetal bovine serum (ExcelBio, cat #FND500), 1% Penicillin-Streptomycin (Solarbio, cat #P1400-100]. TNFα (R&D 210-TA-020/CF) was then added to the assay plate at a final concentration of 100 pg/ml. This plate was then incubated for 24 hrs at 37° C. and 5% CO2. Secreted alkaline phosphatase expression was then measured using QUANTI-Blue™ (Invivogen), according to manufacturer instructions and read on an Envision microplate reader at 620 nm.
Inhibition data for test compound over a range of concentration was plotted as percentage inhibition of the test compound (100%=maximum inhibition). IC50 values were determined after correcting for background [(sample read−mean of low control)/(mean of high control−mean of low control)] where by the low control is DMSO without stimulation and high control is DMSO with stimulation. The IC50 is defined as the concentration of test compound which produces 50% inhibition and was quantified using the 4 parameter logistic equation to fit the data.

Chain of TNFα (P01375 77-233 limits assumed): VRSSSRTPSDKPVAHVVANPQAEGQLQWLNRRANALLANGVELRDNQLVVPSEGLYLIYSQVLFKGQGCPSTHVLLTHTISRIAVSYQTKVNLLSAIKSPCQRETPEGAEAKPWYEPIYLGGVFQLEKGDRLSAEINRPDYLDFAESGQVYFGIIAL

| Structure (SMILES) | IC50 |
| --- | --- |
| CP(C)(=O)c1ccc(-c2ccc3nc4n(c3c2)[C@@H]2C[C@H]4NC(=O)c3cccc(OC(F)F)c32)c(Cl)c1 [Example 41, (1R,11R)-5-[2-chloro-4-(dimethylphosphoryl)phenyl]-18-(difluoromethoxy)-2,9,12-triazapentacyclo[9.8.1.0^{2,10}.0^{3,8}.0^{14,19}]icosa-3(8),4,6,9,14(19),15,17-heptaen-13-one] | < 0.1 µM |
| CCP(=O)(CC)c1ccc(-c2ccc3nc4n(c3c2)[C@@H]2C[C@H]4NC(=O)c3cccc(OC(F)F)c32)c(F)c1 [Example 138, (7R,14R)-11-(4-(diethylphosphoryl)-2-fluorophenyl)-1-(difluoromethoxy)-6,7-dihydro-7,14-methanobenzo[f]benzo[4,5]imidazo[1,2-a][1,4]diazocin-5(14H)-one] | < 0.1 µM |
| [2H]C([2H])([2H])N1C(=O)c2cccc(OC(F)F)c2[C@H]2C[C@@H]1c1nc3ccc(-c4cc(F)c(CP(C)(C)=O)c(F)c4)cc3n12 [Example 69, (7R,14R)-1-(difluoromethoxy)-11-(4-((dimethylphosphoryl)methyl)-3,5-difluorophenyl)-6-(methyl-d3)-6,7-dihydro-7,14-methanobenzo[f]benzo[4,5]imidazo[1,2-a][1,4]diazocin-5(14H)-one] | < 0.1 µM |
| [2H]C([2H])([2H])N1C(=O)c2cccc(OC(F)F)c2[C@H]2C[C@@H]1c1nc3ccc(-c4cc(F)c(P(C)(C)=O)c(C#N)c4)cc3n12 [Example 133, 5-((7R,14R)-1-(difluoromethoxy)-6-(methyl-d3)-5-oxo-5,6,7,14-tetrahydro-7,14-methanobenzo[f]benzo[4,5]imidazo[1,2-a][1,4]diazocin-11-yl)-2-(dimethylphosphoryl)-3-fluorobenzonitrile] | < 0.1 µM |
| CN1C(=O)c2cccc(OC(F)F)c2[C@H]2C[C@@H]1c1nc3ccc(-c4cnc(NCP(C)(C)=O)c(F)c4)cc3n12 [Example 16, (1R,11R)-18-(difluoromethoxy)-5-(6-{[(dimethylphosphoryl)methyl]amino}-5-fluoropyridin-3-yl)-12-methyl-2,9,12-triazapentacyclo[9.8.1.0^{2,10}.0^{3,8}.0^{14,19}]icosa-3(8),4,6,9,14(19),15,17-heptaen-13-one] | < 0.1 µM |
| [2H]C([2H])([2H])N1C(=O)c2cccc(OC(F)F)c2[C@H]2C[C@@H]1c1nc3ccc(-c4ccc(CP(C)(C)=O)cc4)cc3n12 [Example 70, (7R,14R)-1-(difluoromethoxy)-11-(4-((dimethylphosphoryl)methyl)phenyl)-6-(methyl-d3)-6,7-dihydro-7,14-methanobenzo[f]benzo[4,5]imidazo[1,2-a][1,4]diazocin-5(14H)-one] | < 0.1 µM |
| [2H]C([2H])([2H])N1C(=O)c2cccc(OC(F)F)c2[C@H]2C[C@@H]1c1nc3ccc(-c4ccc(NCP(C)(C)=O)nc4)cc3n12 [Example 98, (7R,14R)-1-(difluoromethoxy)-11-(6-(((dimethylphosphoryl)methyl)amino)pyridin-3-yl)-6-(methyl-d3)-6,7-dihydro-7,14-methanobenzo[f]benzo[4,5]imidazo[1,2-a][1,4]diazocin-5(14H)-one] | < 0.1 µM |
| [2H]C([2H])([2H])N1C(=O)c2cccc(OC(F)F)c2[C@H]2C[C@@H]1c1nc3ccc(-c4c(F)cc(P(C)(C)=O)cc4F)cc3n12 [Example 63, (7R,14R)-1-(difluoromethoxy)-11-(4-(dimethylphosphoryl)-2,6-difluorophenyl)-6-(methyl-d3)-6,7-dihydro-7,14-methanobenzo[f]benzo[4,5]imidazo[1,2-a][1,4]diazocin-5(14H)-one] | < 0.1 µM |
| CP(C)(=O)c1c(F)cc(-c2ccc3nc4n(c3c2)[C@@H]2C[C@H]4NC(=O)c3cccc(OC(F)F)c32)cc1F [Example 35, (1R,11R)-18-(difluoromethoxy)-5-[4-(dimethylphosphoryl)-3,5-difluorophenyl]-2,9,12-triazapentacyclo[9.8.1.0^{2,10}.0^{3,8}.0^{14,19}]icosa-3(8),4,6,9,14(19),15,17-heptaen-13-one] | 0.1 to 1 µM |
| CN1C(=O)c2cccc(OC(F)F)c2[C@H]2C[C@@H]1c1nc3cc(F)c(-c4ccc(P(C)(C)=O)c(F)c4F)cc3n12 [Example 55, (1R,11R)-18-(difluoromethoxy)-5-[4-(dimethylphosphoryl)-2,3-difluorophenyl]-6-fluoro-12-methyl-2,9,12-triazapentacyclo[9.8.1.0^{2,10}.0^{3,8}.0^{14,19}]icosa-3(8),4,6,9,14(19),15,17-heptaen-13-one] | < 0.1 µM |
| [2H]C([2H])([2H])N1C(=O)c2cccc(OC(F)F)c2[C@H]2C[C@@H]1c1nc3ccc(-c4ccc(P(C)(C)=O)c(Cl)n4)cc3n12 [Example 121, (7R,14R)-11-(6-chloro-5-(dimethylphosphoryl)pyridin-2-yl)-1-(difluoromethoxy)-6-(methyl-d3)-6,7-dihydro-7,14-methanobenzo[f]benzo[4,5]imidazo[1,2-a][1,4]diazocin-5(14H)-one] | 0.1 to 1 µM |
| CN1C(=O)c2cccc(OC(F)F)c2[C@H]2C[C@@H]1c1nc3ccc(-c4cc(F)c(CP(C)(C)=O)cc4F)cc3n12 [Example 73, (7R,14R)-1-(difluoromethoxy)-11-(4-((dimethylphosphoryl)methyl)-2,5-difluorophenyl)-6-methyl-6,7-dihydro-7,14-methanobenzo[f]benzo[4,5]imidazo[1,2-a][1,4]diazocin-5(14H)-one] | < 0.1 µM |
| [2H]C([2H])([2H])N1C(=O)c2cccc(OC(F)F)c2[C@H]2C[C@@H]1c1nc3ccc(-c4ccc(P(C)(C)=O)c(C)c4F)cc3n12 [Example 107, (7R,14R)-1-(difluoromethoxy)-11-(4-(dimethylphosphoryl)-2-fluoro-3-methylphenyl)-6-(methyl-d3)-6,7-dihydro-7,14-methanobenzo[f]benzo[4,5]imidazo[1,2-a][1,4]diazocin-5(14H)-one] | < 0.1 µM |
| [2H]C([2H])([2H])N1C(=O)c2cccc(OC(F)F)c2[C@H]2C[C@@H]1c1nc3ccc(-c4cc(F)c(C(C)P(C)(C)=O)cc4C)cc3n12 (single isomer, unassigned) [Example 119, (7R,14R)-1-(difluoromethoxy)-11-(4-((S or R)-1-(dimethylphosphoryl)ethyl)-5-fluoro-2-methylphenyl)-6-(methyl-d3)-6,7-dihydro-7,14-methanobenzo[f]benzo[4,5]imidazo[1,2-a][1,4]diazocin-5(14H)-one] | < 0.1 µM |
| [2H]C([2H])([2H])N1C(=O)c2cccc(OC(F)F)c2[C@H]2C[C@@H]1c1nc3c(F)cc(-c4ccc(P(C)(C)=O)c(F)c4)cc3n12 [Example 135, (7R,14R)-1-(difluoromethoxy)-11-(4-(dimethylphosphoryl)-3-fluorophenyl)-9-fluoro-6-(methyl-d3)-6,7-dihydro-7,14-methanobenzo[f]benzo[4,5]imidazo[1,2-a][1,4]diazocin-5(14H)-one] | < 0.1 µM |
| CP(C)(=O)COc1ncc(-c2ccc3nc4n(c3c2)[C@@H]2C[C@H]4NC(=O)c3cccc(OC(F)F)c32)s1 [Example 42, (1R,11R)-18-(difluoromethoxy)-5-{2-[(dimethylphosphoryl)methoxy]-1,3-thiazol-5-yl}-2,9,12-triazapentacyclo[9.8.1.0^{2,10}.0^{3,8}.0^{14,19}]icosa-3(8),4,6,9,14(19),15,17-heptaen-13-one] | < 0.1 µM |
| CP(C)(=O)c1ccc(-c2ccc3nc4n(c3c2)[C@@H]2C[C@H]4NC(=O)c3cccc(OC(F)F)c32)cc1F [Example 43, (1R,11R)-18-(difluoromethoxy)-5-[4-(dimethylphosphoryl)-3-fluorophenyl]-2,9,12-triazapentacyclo[9.8.1.0^{2,10}.0^{3,8}.0^{14,19}]icosa-3(8),4,6,9,14(19),15,17-heptaen-13-one] | < 0.1 µM |
| [2H]C([2H])([2H])N1C(=O)c2cccc(OC(F)F)c2[C@H]2C[C@@H]1c1nc3ccc(-c4ccc(P(=O)(CC)CC)nc4)cc3n12 [Example 126, (7R,14R)-11-(6-(diethylphosphoryl)pyridin-3-yl)-1-(difluoromethoxy)-6-(methyl-d3)-6,7-dihydro-7,14-methanobenzo[f]benzo[4,5]imidazo[1,2-a][1,4]diazocin-5(14H)-one] | < 0.1 µM |
| CP(C)(=O)COc1ncc(-c2ccc3nc4n(c3c2)[C@@H]2C[C@H]4NC(=O)c3cccc(OC(F)F)c32)cn1 [Example 12, (1R,11R)-18-(difluoromethoxy)-5-(2-[(dimethylphosphoryl)methoxy]pyrimidin-5-yl)-2,9,12-triazapentacyclo[9.8.1.0^{2,10}.0^{3,8}.0^{14,19}]icosa-3(8),4,6,9,14(19),15,17-heptaen-13-one] | 1 to 10 µM |
| [2H]C([2H])([2H])N1C(=O)c2cccc(OC(F)F)c2[C@H]2C[C@@H]1c1nc3ccc(-c4ccc(C(C)P(C)(C)=O)cc4)cc3n12 (single isomer, unassigned) [Example 85, (7R,14R)-1-(difluoromethoxy)-11-(4-((S or R)-1-(dimethylphosphoryl)ethyl)phenyl)-6-(methyl-d3)-6,7-dihydro-7,14-methanobenzo[f]benzo[4,5]imidazo[1,2-a][1,4]diazocin-5(14H)-one] | < 0.1 µM |
